This is an account of results in US8063071B2 (GlaxoSmithKline, LLC, priority 2007, dated 2011).

Where a name gives a salt, the structure may show the parent alone.

For experiment [1], the target named is T1, Recombinant human IKKβ (residues 1-737) (Homo sapiens, UniProt O14920).
T1 construct: Recombinant human IKKβ (residues 1-737); GST (C); made in house
T1 sequence (O14920 1-737): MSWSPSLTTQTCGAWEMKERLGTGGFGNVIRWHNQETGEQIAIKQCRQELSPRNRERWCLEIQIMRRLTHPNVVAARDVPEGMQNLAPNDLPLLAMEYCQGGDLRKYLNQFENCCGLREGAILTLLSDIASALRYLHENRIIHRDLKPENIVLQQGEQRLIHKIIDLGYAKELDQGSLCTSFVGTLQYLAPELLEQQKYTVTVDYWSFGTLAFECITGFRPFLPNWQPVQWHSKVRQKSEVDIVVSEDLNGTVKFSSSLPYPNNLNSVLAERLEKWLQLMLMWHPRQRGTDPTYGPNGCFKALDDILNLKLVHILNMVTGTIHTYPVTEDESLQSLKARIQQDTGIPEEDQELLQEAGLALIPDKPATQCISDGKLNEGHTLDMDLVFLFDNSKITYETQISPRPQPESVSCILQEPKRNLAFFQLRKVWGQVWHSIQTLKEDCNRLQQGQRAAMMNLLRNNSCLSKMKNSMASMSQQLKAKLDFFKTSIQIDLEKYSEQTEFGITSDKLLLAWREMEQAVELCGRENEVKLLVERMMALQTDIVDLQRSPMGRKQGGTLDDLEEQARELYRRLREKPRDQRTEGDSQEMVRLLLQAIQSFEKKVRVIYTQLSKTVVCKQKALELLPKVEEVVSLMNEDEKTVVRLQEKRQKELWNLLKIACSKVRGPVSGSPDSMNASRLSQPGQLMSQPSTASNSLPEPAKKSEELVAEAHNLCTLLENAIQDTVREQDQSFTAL
As to the kind of experiment: IKK2 assay (TR-FRET). It counts as biochemical. The following applies: ATP 1 μM final, read-out: pIC50 against IKK2 (converted). A digest of the protocol: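 TR-FRET readout (665 nm over 620 nm Eu reference) of GST-IB Ser32/36 phosphorylation after 60 min detection. Reaction: 1 μM ATP, 25 nM substrate, 0.5-5 nM GST-fused IKKβ 1-737 from baculovirus, pH 7.4 HEPES buffer, 1.7% DMSO, 15 min room temperature, EDTA-terminated.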
A general note: TR-FRET usually uses a lanthanide donor and a delayed reading to cut background.

In experiment [2] the test system is human monocyte stimulated cytokine production (TNF-α). As to the kind of experiment: Monocyte assay (LPS-stimulated TNF-α production). The following applies: 24 h, 200 ng/mL LPS, TNF-α by ELISA. In kind it is cell-based. In short, it runs like this:
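TNF-α release was measured by ELISA after 24 hrs at 37 C. Cells were stimulated with 200 ng/mL E. coli LPS, with compound added 30 minutes beforehand (0.1% DMSO vehicle). Cells were Ficoll/MACS-isolated CD14+ human monocytes adhered at 1×10^6 cells/mL, and viability was checked by trypan blue.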
(In general: An ELISA detects its analyte on a solid surface through an enzyme-linked reagent.)

Take `CCS(=O)(=O)N1CCC(c2c[nH]c3c(C(N)=O)cc(-c4ccc(CN5CCCC5)s4)cc23)CC1` [Example 239, 3-[1-(ethylsulfonyl)-4-piperidinyl]-5-[5-(1-pyrrolidinylmethyl)-2-thienyl]-1H-indole-7-carboxamide trifluoroacetate]: the IC50 in experiment [1] is ≤ 10 µM; in experiment [2], ≤ 1.5 µM.

In the case of `CCS(=O)(=O)N1CCC(c2c[nH]c3c(C(N)=O)cc(-c4ccc(CN(C)C)s4)cc23)CC1` [Example 240, 5-{5-[(dimethylamino)methyl]-2-thienyl}-3-[1-(ethylsulfonyl)-4-piperidinyl]-1H-indole-7-carboxamide trifluoroacetate], the IC50 in experiment [1] is ≤ 10 µM; in experiment [2], ≤ 1.5 µM.

For the compound `CCCNCc1ccc(-c2cc(C(N)=O)c3[nH]cc(C4CCN(S(=O)(=O)CC)CC4)c3c2)s1` [Example 241, 3-[1-(ethylsulfonyl)-4-piperidinyl]-5-{5-[(propylamino)methyl]-2-thienyl}-1H-indole-7-carboxamide trifluoroacetate], the IC50 in experiment [1] was ≤ 10 µM; in experiment [2], ≤ 1.5 µM.

Regarding `CCN(CC)Cc1ccc(-c2cc(C(N)=O)c3[nH]cc(C4CCN(S(=O)(=O)CC)CC4)c3c2)s1` [Example 242, 5-{5-[(diethylamino)methyl]-2-thienyl}-3-[1-(ethylsulfonyl)-4-piperidinyl]-1H-indole-7-carboxamide trifluoroacetate], the IC50 is ≤ 10 µM in experiment [1] and ≤ 1.5 µM in experiment [2].

On to `CCS(=O)(=O)N1CCC(c2c[nH]c3c(C(N)=O)cc(-c4coc(CNCC(C)(C)C)c4)cc23)CC1` [Example 244, 5-(5-{[(2,2-dimethylpropyl)amino]methyl}-3-furanyl)-3-[1-(ethylsulfonyl)-4-piperidinyl]-1H-indole-7-carboxamide trifluoroacetate], for which the IC50 in experiment [1] was ≤ 10 µM; in experiment [2], ≤ 1.5 µM.

For `CCS(=O)(=O)N1CCC(c2c[nH]c3c(C(N)=O)cc(-c4coc(CNCC(C)C)c4)cc23)CC1` [Example 245, 3-[1-(ethylsulfonyl)-4-piperidinyl]-5-(5-{[(2-methylpropyl)amino]methyl}-3-furanyl)-1H-indole-7-carboxamide trifluoroacetate], the IC50 was ≤ 10 µM in experiment [1] and ≤ 1.5 µM in experiment [2].

`CCS(=O)(=O)N1CCC(c2c[nH]c3c(C(N)=O)cc(-c4coc(CNCC5CCCC5)c4)cc23)CC1` [Example 246, 5-(5-{[(cyclopentylmethyl)amino]methyl}-3-furanyl)-3-[1-(ethylsulfonyl)-4-piperidinyl]-1H-indole-7-carboxamide trifluoroacetate]: the IC50 in experiment [1] is ≤ 10 µM; in experiment [2], ≤ 1.5 µM.

Regarding `CCS(=O)(=O)N1CCC(c2c[nH]c3c(C(N)=O)cc(-c4coc(CN5CCCC5)c4)cc23)CC1` [Example 247, 3-[1-(ethylsulfonyl)-4-piperidinyl]-5-[5-(1-pyrrolidinylmethyl)-3-furanyl]-1H-indole-7-carboxamide trifluoroacetate], the IC50 was ≤ 10 µM in experiment [1] and ≤ 1.5 µM in experiment [2].

Turning to `CCN(CC)Cc1cc(-c2cc(C(N)=O)c3[nH]cc(C4CCN(S(=O)(=O)CC)CC4)c3c2)co1` [Example 248, 5-{5-[(diethylamino)methyl]-3-furanyl}-3-[1-(ethylsulfonyl)-4-piperidinyl]-1H-indole-7-carboxamide trifluoroacetate], the results for the IC50 in experiment [1] and in experiment [2] were ≤ 10 µM and ≤ 1.5 µM, respectively.

In the case of `CCS(=O)(=O)N1CCC(c2c[nH]c3c(C(N)=O)cc(-c4ncc(CN5CCCC5)s4)cc23)CC1` [Example 249, 3-[1-(ethylsulfonyl)-4-piperidinyl]-5-[5-(1-pyrrolidinylmethyl)-1,3-thiazol-2-yl]-1H-indole-7-carboxamide trifluoroacetate], the IC50 is ≤ 10 µM in experiment [1] and > 1 µM in experiment [2].

Turning to `CCS(=O)(=O)N1CCC(c2c[nH]c3c(C(N)=O)cc(-c4csc(C(C(C)C)N5CCCC5)c4)cc23)CC1` (centres unmarked) [Example 250, 3-[1-(ethylsulfonyl)-4-piperidinyl]-5-{5-[2-methyl-1-(1-pyrrolidinyl)propyl]-3-thienyl}-1H-indole-7-carboxamide trifluoroacetate], the IC50 was ≤ 10 µM in experiment [1] and ≤ 1.5 µM in experiment [2].

As for `CCS(=O)(=O)N1CCC(c2c[nH]c3c(C(N)=O)cc(-c4nc(CN5CCCC5)cs4)cc23)CC1` [Example 251, 3-[1-(ethylsulfonyl)-4-piperidinyl]-5-[4-(1-pyrrolidinylmethyl)-1,3-thiazol-2-yl]-1H-indole-7-carboxamide trifluoroacetate], the figures for the IC50 in experiment [1] and in experiment [2] were ≤ 10 µM and ≤ 1.5 µM, respectively.

For `CCS(=O)(=O)N1CCC(c2c[nH]c3c(C(N)=O)cc(-c4cnn(CCN5CCCC5)c4)cc23)CC1` [Example 253, 3-[1-(ethylsulfonyl)-4-piperidinyl]-5-{1-[2-(1-pyrrolidinyl)ethyl]-1H-pyrazol-4-yl}-1H-indole-7-carboxamide trifluoroacetate], the values for the IC50 in experiment [1] and in experiment [2] were ≤ 10 µM and > 1 µM, respectively.

In the case of `CCS(=O)(=O)N1CCC(c2c[nH]c3c(C(N)=O)cc(-c4cnn(CCN5CCOCC5)c4)cc23)CC1` [Example 254, 3-[1-(ethylsulfonyl)-4-piperidinyl]-5-{1-[2-(4-morpholinyl)ethyl]-1H-pyrazol-4-yl}-1H-indole-7-carboxamide trifluoroacetate], the IC50 in experiment [1] was ≤ 10 µM; in experiment [2], > 1 µM.

For the compound `CCS(=O)(=O)N1CCC(c2c[nH]c3c(C(N)=O)cc(-c4cnn(CCNCCO)c4)cc23)CC1` [Example 255, 3-[1-(ethylsulfonyl)-4-piperidinyl]-5-(1-{2-[(2-hydroxyethyl)amino]ethyl}-1H-pyrazol-4-yl)-1H-indole-7-carboxamide trifluoroacetate], the results for the IC50 in experiment [1] and in experiment [2] were ≤ 10 µM and > 1 µM, respectively.

As for `CCCCNCCn1cc(-c2cc(C(N)=O)c3[nH]cc(C4CCN(S(=O)(=O)CC)CC4)c3c2)cn1` [Example 256, 5-{1-[2-(butylamino)ethyl]-1H-pyrazol-4-yl}-3-[1-(ethylsulfonyl)-4-piperidinyl]-1H-indole-7-carboxamide trifluoroacetate], the IC50 was ≤ 10 µM in experiment [1] and > 1 µM in experiment [2].

Take `CCS(=O)(=O)N1CCC(c2c[nH]c3c(C(N)=O)cc(-c4cnn(CCNC5CCC5)c4)cc23)CC1` [Example 257, 5-{1-[2-(cyclobutylamino)ethyl]-1H-pyrazol-4-yl}-3-[1-(ethylsulfonyl)-4-piperidinyl]-1H-indole-7-carboxamide trifluoroacetate]: the IC50 in experiment [1] was ≤ 10 µM; in experiment [2] it was > 1 µM.

Regarding `CCN(CC)CCNCCn1cc(-c2cc(C(N)=O)c3[nH]cc(C4CCN(S(=O)(=O)CC)CC4)c3c2)cn1` [Example 258, 5-[1-(2-{[2-(diethylamino)ethyl]amino}ethyl)-1H-pyrazol-4-yl]-3-[1-(ethylsulfonyl)-4-piperidinyl]-1H-indole-7-carboxamide trifluoroacetate], the IC50 is ≤ 10 µM in experiment [1] and > 1 µM in experiment [2].

In the case of `CCS(=O)(=O)N1CCC(c2c[nH]c3c(C(N)=O)cc(-c4cnn(CCNC(C)C)c4)cc23)CC1` [Example 259, 3-[1-(ethylsulfonyl)-4-piperidinyl]-5-(1-{2-[(1-methylethyl)amino]ethyl}-1H-pyrazol-4-yl)-1H-indole-7-carboxamide trifluoroacetate], the IC50 in experiment [1] was ≤ 10 µM; in experiment [2], > 1 µM.

In the case of `CCS(=O)(=O)N1CCC(c2c[nH]c3c(C(N)=O)cc(-c4cnn(CCNCC(C)C)c4)cc23)CC1` [Example 260, 3-[1-(ethylsulfonyl)-4-piperidinyl]-5-(1-{2-[(2-methylpropyl)amino]ethyl}-1H-pyrazol-4-yl)-1H-indole-7-carboxamide trifluoroacetate], the IC50 was ≤ 10 µM in experiment [1] and > 1 µM in experiment [2].

Turning to `CCS(=O)(=O)N1CCC(c2c[nH]c3c(C(N)=O)cc(-c4ccc(OC)c(CN5CCCC5)c4)cc23)CC1` [Example 262, 3-[1-(ethylsulfonyl)-4-piperidinyl]-5-[4-(methyloxy)-3-(1-pyrrolidinylmethyl)phenyl]-1H-indole-7-carboxamide trifluoroacetate], the IC50 in experiment [1] is ≤ 10 µM; in experiment [2], > 1 µM.

`CCS(=O)(=O)N1CCC(c2c[nH]c3c(C(N)=O)cc(-c4ccc(F)c(CNC)c4)cc23)CC1` [Example 269, 3-[1-(ethylsulfonyl)-4-piperidinyl]-5-{4-fluoro-3-[(methylamino)methyl]phenyl}-1H-indole-7-carboxamide trifluoroacetate]: the IC50 in experiment [1] is ≤ 10 µM; in experiment [2], ≤ 1.5 µM.
